Source: the NIST ThermoML archive (doi:10.1021/je049842u)
Numbers after ± are expanded uncertainties.

Tests used:
[1] = compressibility factor (dimensionless); settings: Gas, Burnett expansion method
[2] = Liquid, Closed cell (Static) method

[N-]=[N+]=O [nitrous oxide]
compressibility factor ([1]; 283.5 K, 207.4 kPa): 0.9884 ± 0.001
compressibility factor ([1]; 283.5 K, 308.1 kPa): 0.9809 ± 0.001
compressibility factor ([1]; 283.5 K, 456.3 kPa): 0.9705 ± 0.001
compressibility factor ([1]; 283.5 K, 672.4 kPa): 0.9554 ± 0.001
compressibility factor ([1]; 283.5 K, 983.6 kPa): 0.9337 ± 0.0009
compressibility factor ([1]; 283.5 K, 1422.1 kPa): 0.9019 ± 0.0009
compressibility factor ([1]; 283.5 K, 2020 kPa): 0.8558 ± 0.0009
compressibility factor ([1]; 283.5 K, 2788.1 kPa): 0.7891 ± 0.0008
compressibility factor ([1]; 283.5 K, 3680.3 kPa): 0.6958 ± 0.0007
compressibility factor ([1]; 283.51 K, 170.6 kPa): 0.9917 ± 0.001
compressibility factor ([1]; 283.51 K, 253.7 kPa): 0.9848 ± 0.001
compressibility factor ([1]; 283.51 K, 376.3 kPa): 0.9761 ± 0.001
compressibility factor ([1]; 283.51 K, 556.2 kPa): 0.9636 ± 0.001
compressibility factor ([1]; 283.51 K, 816.9 kPa): 0.9456 ± 0.0009
compressibility factor ([1]; 283.51 K, 1188.9 kPa): 0.9193 ± 0.0009
compressibility factor ([1]; 283.51 K, 1705.3 kPa): 0.8809 ± 0.0009
compressibility factor ([1]; 283.51 K, 2390.6 kPa): 0.825 ± 0.0008
compressibility factor ([1]; 283.51 K, 3232.1 kPa): 0.7451 ± 0.0007
compressibility factor ([1]; 304.09 K, 194 kPa): 0.99 ± 0.001
compressibility factor ([1]; 304.09 K, 288.7 kPa): 0.9846 ± 0.001
compressibility factor ([1]; 304.09 K, 429.3 kPa): 0.9779 ± 0.001
compressibility factor ([1]; 304.09 K, 635.2 kPa): 0.9666 ± 0.001
compressibility factor ([1]; 304.09 K, 935.6 kPa): 0.9511 ± 0.001
compressibility factor ([1]; 304.09 K, 1366.6 kPa): 0.9281 ± 0.0009
compressibility factor ([1]; 304.09 K, 1968.7 kPa): 0.8932 ± 0.0009
compressibility factor ([1]; 304.09 K, 2781.3 kPa): 0.843 ± 0.0008
compressibility factor ([1]; 304.09 K, 3812.3 kPa): 0.772 ± 0.0008
compressibility factor ([1]; 304.1 K, 204 kPa): 0.9912 ± 0.001
compressibility factor ([1]; 304.1 K, 303.6 kPa): 0.9853 ± 0.001
compressibility factor ([1]; 304.1 K, 450.8 kPa): 0.9772 ± 0.001
compressibility factor ([1]; 304.1 K, 666.7 kPa): 0.9655 ± 0.001
compressibility factor ([1]; 304.1 K, 980.2 kPa): 0.9484 ± 0.001
compressibility factor ([1]; 304.1 K, 1428.5 kPa): 0.9233 ± 0.0009
compressibility factor ([1]; 304.1 K, 2054.5 kPa): 0.8871 ± 0.0009
compressibility factor ([1]; 304.1 K, 2893.4 kPa): 0.8347 ± 0.0008
compressibility factor ([1]; 304.1 K, 3945.6 kPa): 0.7604 ± 0.0008
compressibility factor ([1]; 314.41 K, 193.8 kPa): 0.9927 ± 0.001
compressibility factor ([1]; 314.41 K, 288.6 kPa): 0.9878 ± 0.001
compressibility factor ([1]; 314.41 K, 429 kPa): 0.9808 ± 0.001
compressibility factor ([1]; 314.41 K, 635.5 kPa): 0.9706 ± 0.001
compressibility factor ([1]; 314.41 K, 936.8 kPa): 0.9558 ± 0.001
compressibility factor ([1]; 314.41 K, 1371.3 kPa): 0.9347 ± 0.0009
compressibility factor ([1]; 314.41 K, 1984.4 kPa): 0.9036 ± 0.0009
compressibility factor ([1]; 314.41 K, 2822.9 kPa): 0.8587 ± 0.0009
compressibility factor ([1]; 314.41 K, 3911.4 kPa): 0.7949 ± 0.0008
compressibility factor ([1]; 314.42 K, 201.1 kPa): 0.992 ± 0.001
compressibility factor ([1]; 314.42 K, 299.5 kPa): 0.9869 ± 0.001
compressibility factor ([1]; 314.42 K, 445.1 kPa): 0.9798 ± 0.001
compressibility factor ([1]; 314.42 K, 659.3 kPa): 0.9696 ± 0.001
compressibility factor ([1]; 314.42 K, 971.5 kPa): 0.9545 ± 0.001
compressibility factor ([1]; 314.42 K, 1420.6 kPa): 0.9324 ± 0.0009
compressibility factor ([1]; 314.42 K, 2052.9 kPa): 0.9001 ± 0.0009
compressibility factor ([1]; 314.42 K, 2915.1 kPa): 0.8539 ± 0.0009
compressibility factor ([1]; 314.42 K, 4027.4 kPa): 0.7881 ± 0.0008
compressibility factor ([1]; 324.78 K, 182.9 kPa): 0.9923 ± 0.001
compressibility factor ([1]; 324.78 K, 272.8 kPa): 0.9888 ± 0.001
compressibility factor ([1]; 324.78 K, 406.1 kPa): 0.9831 ± 0.001
compressibility factor ([1]; 324.78 K, 602.6 kPa): 0.9746 ± 0.001
compressibility factor ([1]; 324.78 K, 891.4 kPa): 0.9631 ± 0.001
compressibility factor ([1]; 324.78 K, 1309.1 kPa): 0.9449 ± 0.0009
compressibility factor ([1]; 324.78 K, 1904.7 kPa): 0.9185 ± 0.0009
compressibility factor ([1]; 324.78 K, 2731.6 kPa): 0.88 ± 0.0009
compressibility factor ([1]; 324.78 K, 3833.8 kPa): 0.8251 ± 0.0008
compressibility factor ([1]; 324.79 K, 183.9 kPa): 0.9933 ± 0.001
compressibility factor ([1]; 324.79 K, 274.1 kPa): 0.9891 ± 0.001
compressibility factor ([1]; 324.79 K, 407.9 kPa): 0.9833 ± 0.001
compressibility factor ([1]; 324.79 K, 605.3 kPa): 0.9748 ± 0.001
compressibility factor ([1]; 324.79 K, 894.5 kPa): 0.9623 ± 0.001
compressibility factor ([1]; 324.79 K, 1313.6 kPa): 0.9441 ± 0.0009
compressibility factor ([1]; 324.79 K, 1910.8 kPa): 0.9174 ± 0.0009
compressibility factor ([1]; 324.79 K, 2740 kPa): 0.8789 ± 0.0009
compressibility factor ([1]; 324.79 K, 3845.5 kPa): 0.824 ± 0.0008
compressibility factor ([1]; 335.16 K, 175.4 kPa): 0.9949 ± 0.001
compressibility factor ([1]; 335.16 K, 261.7 kPa): 0.9913 ± 0.001
compressibility factor ([1]; 335.16 K, 389.8 kPa): 0.9864 ± 0.001
compressibility factor ([1]; 335.16 K, 579.2 kPa): 0.9792 ± 0.001
compressibility factor ([1]; 335.16 K, 857.6 kPa): 0.9686 ± 0.001
compressibility factor ([1]; 335.16 K, 1263.2 kPa): 0.9531 ± 0.001
compressibility factor ([1]; 335.16 K, 1845.9 kPa): 0.9304 ± 0.0009
compressibility factor ([1]; 335.16 K, 2665.8 kPa): 0.8977 ± 0.0009
compressibility factor ([1]; 335.16 K, 3777.8 kPa): 0.8498 ± 0.0009
compressibility factor ([1]; 335.18 K, 188.5 kPa): 0.9942 ± 0.001
compressibility factor ([1]; 335.18 K, 281 kPa): 0.9902 ± 0.001
compressibility factor ([1]; 335.18 K, 418.3 kPa): 0.9847 ± 0.001
compressibility factor ([1]; 335.18 K, 621.3 kPa): 0.9772 ± 0.001
compressibility factor ([1]; 335.18 K, 919.2 kPa): 0.9658 ± 0.001
compressibility factor ([1]; 335.18 K, 1352.3 kPa): 0.9492 ± 0.001
compressibility factor ([1]; 335.18 K, 1972.3 kPa): 0.9248 ± 0.0009
compressibility factor ([1]; 335.18 K, 2839.6 kPa): 0.8895 ± 0.0009
compressibility factor ([1]; 335.18 K, 4008.4 kPa): 0.8389 ± 0.0008
compressibility factor ([1]; 345.51 K, 185.8 kPa): 0.9943 ± 0.001
compressibility factor ([1]; 345.51 K, 277.2 kPa): 0.991 ± 0.001
compressibility factor ([1]; 345.51 K, 413 kPa): 0.9863 ± 0.001
compressibility factor ([1]; 345.51 K, 613.8 kPa): 0.9794 ± 0.001
compressibility factor ([1]; 345.51 K, 909.5 kPa): 0.9693 ± 0.001
compressibility factor ([1]; 345.51 K, 1340.3 kPa): 0.9543 ± 0.001
compressibility factor ([1]; 345.51 K, 1960.2 kPa): 0.9324 ± 0.0009
compressibility factor ([1]; 345.51 K, 2834.5 kPa): 0.9008 ± 0.0009
compressibility factor ([1]; 345.51 K, 4029 kPa): 0.8553 ± 0.0009
compressibility factor ([1]; 345.58 K, 184.6 kPa): 0.9943 ± 0.001
compressibility factor ([1]; 345.58 K, 275.5 kPa): 0.9911 ± 0.001
compressibility factor ([1]; 345.58 K, 410.4 kPa): 0.9865 ± 0.001
compressibility factor ([1]; 345.58 K, 610.1 kPa): 0.9797 ± 0.001
compressibility factor ([1]; 345.58 K, 903.9 kPa): 0.9697 ± 0.001
compressibility factor ([1]; 345.58 K, 1332.3 kPa): 0.9548 ± 0.001
compressibility factor ([1]; 345.58 K, 1949.3 kPa): 0.9332 ± 0.0009
compressibility factor ([1]; 345.58 K, 2819.4 kPa): 0.9017 ± 0.0009
compressibility factor ([1]; 345.58 K, 4008.9 kPa): 0.8565 ± 0.0009
compressibility factor ([1]; 364.36 K, 207.6 kPa): 0.9928 ± 0.001
compressibility factor ([1]; 364.36 K, 241.7 kPa): 0.9925 ± 0.001
compressibility factor ([1]; 364.36 K, 309.9 kPa): 0.9907 ± 0.001
compressibility factor ([1]; 364.36 K, 360.3 kPa): 0.9889 ± 0.001
compressibility factor ([1]; 364.36 K, 462 kPa): 0.9871 ± 0.001
compressibility factor ([1]; 364.36 K, 536.5 kPa): 0.9843 ± 0.001
compressibility factor ([1]; 364.36 K, 687.1 kPa): 0.9812 ± 0.001
compressibility factor ([1]; 364.36 K, 797.5 kPa): 0.9779 ± 0.001
compressibility factor ([1]; 364.36 K, 1018.5 kPa): 0.9723 ± 0.001
compressibility factor ([1]; 364.36 K, 1179.8 kPa): 0.967 ± 0.001
compressibility factor ([1]; 364.36 K, 1502.7 kPa): 0.9588 ± 0.001
compressibility factor ([1]; 364.36 K, 1737 kPa): 0.9517 ± 0.001
compressibility factor ([1]; 364.36 K, 2201.5 kPa): 0.9389 ± 0.0009
compressibility factor ([1]; 364.36 K, 2535.6 kPa): 0.9285 ± 0.0009
compressibility factor ([1]; 364.36 K, 3191.1 kPa): 0.9097 ± 0.0009
compressibility factor ([1]; 364.36 K, 3655.3 kPa): 0.8947 ± 0.0009
compressibility factor ([1]; 364.36 K, 4555 kPa): 0.8679 ± 0.0009
compressibility factor ([1]; 364.36 K, 5179.9 kPa): 0.8475 ± 0.0008
vapor or sublimation pressure ([2]; 219.24 K): 554.7 ± 1.3 kPa
vapor or sublimation pressure ([2]; 222.28 K): 626.3 ± 1.4 kPa
vapor or sublimation pressure ([2]; 223.31 K): 652.8 ± 1.5 kPa
vapor or sublimation pressure ([2]; 227.32 K): 759.6 ± 1.6 kPa
vapor or sublimation pressure ([2]; 227.36 K): 760.6 ± 1.6 kPa
vapor or sublimation pressure ([2]; 232.37 K): 912.1 ± 2.2 kPa
vapor or sublimation pressure ([2]; 232.43 K): 915.4 ± 2.2 kPa
vapor or sublimation pressure ([2]; 237.49 K): 1092.9 ± 2.1 kPa
vapor or sublimation pressure ([2]; 242.57 K): 1294.7 ± 2.4 kPa
vapor or sublimation pressure ([2]; 247.65 K): 1521.9 ± 2.8 kPa
vapor or sublimation pressure ([2]; 252.73 K): 1777 ± 3.2 kPa
vapor or sublimation pressure ([2]; 257.8 K): 2061.8 ± 3.6 kPa
vapor or sublimation pressure ([2]; 257.87 K): 2065.4 ± 3.6 kPa
vapor or sublimation pressure ([2]; 262.9 K): 2379 ± 4.2 kPa
vapor or sublimation pressure ([2]; 262.95 K): 2381.8 ± 4.2 kPa
vapor or sublimation pressure ([2]; 267.98 K): 2730.6 ± 4.8 kPa
vapor or sublimation pressure ([2]; 268.03 K): 2734 ± 4.8 kPa
vapor or sublimation pressure ([2]; 273.08 K): 3119.9 ± 5.4 kPa
